The values that follow come from publication PMC10249623 (Environmental Science & Technology, 2023).

Where two headings read alike, the source gives them in different places. Marks after values point to notes of the source that are not given here.

A short description of data set [1]: Direct measurement of Kaw using the standard VPR-HS method. It is filed as physicochemical. As to conditions: measured by the VPR-HS method in this study, 25 °C. From the text:
Kaw values for five PFAS were directly measured using a standard VPR-HS method, as in the literature.[7],[8] The experimental procedure is similar to what has been described previously for KHxd/air([21]) and is summarized in SI-3.

Data set [2] is described as follows: Hexadecane/water partition coefficient, batch partition method. It is filed as physicochemical. As to conditions: for log KHxd/w batch partition method mean: 25 °C, n = 5; for log KHxd/w with pure water lower than with 1 mM HCl solution by: preliminary experiments, pure water vs 1 mM HCl.
The nature of data set [3]: Hexadecane/water partition coefficient, modified VPR-HS method. It is filed as physicochemical. As to conditions: 25 °C.
Experimental: KHxd/w was also measured with a modified version of the VPR-HS method; 20 mL headspace vials were filled with water and hexadecane with different volume ratios. The total liquid volume was always 20 mL. All vials received the same amount of the target compound. After equilibration at 25 °C, the headspace was injected into the GC/MS. […] Here, response linearity as well as no significant mass of the compound in the headspace and any other interface (e.g., vial wall, hexadecane/water interface, septum) was assumed. As α, m, and Vtot (=20 mL) are constant for a given compound, KHxd/w can be fitted on the data of PA vs VHxd. Theoretically, KHxd/w could be determined with a minimum of two VHxd conditions (e.g., 0 and 20 mL), whereas at least four VHxd values were prepared in this work.
Data set [4] is described as follows: Air/water partition coefficient via hexadecane/air/water thermodynamic cycle (eq 1). As to conditions: for log Kaw eq 1: 25 °C, KHxd/w divided by KHxd/air. It is filed as physicochemical.
Experimental: The objectives of this study are to obtain new experimental data for Kaw at 25 °C for a series of neutral PFAS and to evaluate Kaw prediction models. […] To circumvent the difficulty associated with direct measurement of Kaw, we determined Kaw indirectly by measuring the hexadecane/water partition coefficient (KHxd/w) and applying the hexadecane/air/water thermodynamic cycle: [drawing 1] 1 where KHxd/air is the hexadecane/air partition coefficient. KHxd/w can be measured more reliably than Kaw because gas phase quantification is not needed and hexadecane has a larger solubilization capacity than water, which minimizes the problem of third-phase sorption. […] The new Kaw data for 21 PFAS were compared to predictions by four models that are often used in environmental risk assessments.
The nature of data set [5]: Hexadecane/water partition coefficient, shared-headspace method. As to conditions: for log KHxd/w shared-headspace method mean: 25 °C, n = 5. It is filed as physicochemical. The method, then: The method concept is based on the existing publications that used a shared-headspace system for salting-out experiments[26] and ecotoxicity tests.[27],[28] Hexadecane solution of PFAS was placed in a 350 μL insert hosted by a 1.5 mL GC vial. This small vial was put in a 10 mL headspace vial that contained 1 mL of water. The 10 mL vial was closed with a PTFE-lined septum and gently shaken at 25 °C for 24 h. During this time, the compound dissolved in hexadecane was partially transferred to water via the headspace until a three-phase partition equilibrium was reached between hexadecane, air, and water. Water was then sampled and immediately extracted with n-hexane for GC/MS analysis. The hexadecane phase was also analyzed, which confirmed 85–100% mass conservation (Table S3). KHxd/w was obtained from the measured concentration in water, as in the batch partition method. […] The shared-headspace method is useful for compounds with sufficient volatility (relatively high Kaw, low KHxd/air) and hydrophobicity (relatively high KHxd/w), as these properties ensure an efficient transfer from hexadecane to water via air and negligible concentration depletion in hexadecane. Therefore, nine PFAS that meet this requirement were measured by this method, while all eight sulfonamides and four short-chain FTOHs were not.
SI-1 Extended descriptions for experimental methods
Pure PFAS were dissolved in hexadecane either directly or using acetone as carrier solvent. Up to three PFAS were mixed in hexadecane and investigated simultaneously. The PFAS concentration in hexadecane was 0.1–2000 mg/L, depending on the expected KHxd/w and the sensitivity of the quantification method. The acetone content in hexadecane was up to 0.3% (v/v). This acetone should have largely partitioned into water during the partition experiment, where the final concentration in water was estimated to be < 0.3% (v/v). We assumed that this concentration of acetone in water does not have a significant influence on partition coefficients of PFAS. […]
The water phase was analyzed directly by liquid chromatography/mass spectrometry (LC/MS) (for PFBSA, PFHxSA, MeFBSA, MeFHxSA, MeFBSE), diluted with acetonitrile and analyzed with LC/MS (for PFOSA EtFHxSA, EtFHxSE), or liquid-liquid-extracted with n-hexane and analyzed by gas chromatography/mass spectrometry (GC/MS) (for all others). The hexadecane phase was back-extracted with water (for PFBSA, PFHxSA) or with 0.1 mM NaOH water (for PFOSA) and measured by LC/MS, or it was diluted with n-hexane by a factor of 100–500 and analyzed by GC/MS (for all others). […]
The 95% confidence interval (CI) of the mean (x) was calculated with the formula, x ± 2.78 SD/√5, where SD is the standard deviation, based on the t-distribution and n = 5. […]
PFHxSA, PFOSA, MeFBSA, MeFHxSA, and EtFHxSA were performed using 1 mM HCl aqueous solution […]
A shared headspace method was used to measure KHxd/w for nine PFAS. In this method, hexadecane solution of PFAS was prepared as described above and 300 μL was placed in a 350-μL glass insert

The conditions of data set [6]: cited from earlier work.
Where [7] appears, read: 1 mM HCl was used instead of pure water.

As for `OCC(F)(F)C(F)(F)C(F)(F)F` [3:1 FTOH, 1H,1H-perfluorobutan-1-ol], the “log Kaw VPR-HS” value in data set [1] is “–2.03 ^d”.
`OCCCC(F)(F)C(F)(F)C(F)(F)F` [3:3 FTOH, 3-(perfluoropropyl)propan-1-ol]: the “log KHxd/w batch partition method mean” value in data set [2] (pure water) is 0.52. In addition, the “log KHxd/w modified VPR-HS method mean” value in data set [3] is given as 0.32. Besides, the “log Kaw eq 1” value in data set [4] was “–2.17”. The “log Kaw VPR-HS” value in data set [1] was “–2.04 ^d”.
`FC(F)(F)C(F)(F)C(F)(F)C(F)(F)CCI` [4:2 FTI, 1H,1H,2H,2H-perfluorohexyl iodide]: in data set [5], the “log KHxd/w shared-headspace method mean” value was determined as 4.93. Besides, the “log Kaw eq 1” value in data set [4] worked out at 1.60.
Turning to `C=C(C)C(=O)OCCC(F)(F)C(F)(F)C(F)(F)C(F)(F)F` [4:2 FTMAC, 1H,1H,2H,2H-perfluorohexyl methacrylate], in data set [5], the “log KHxd/w shared-headspace method mean” value stood at 4.65. Also, in data set [4], the “log Kaw eq 1” value stood at 0.62. In addition, the “log Kaw VPR-HS” value in data set [1] is reported as “–0.14 ^d”.
With `OCCC(F)(F)C(F)(F)C(F)(F)C(F)(F)F` [4:2 FTOH, 1H,1H,2H,2H-perfluorohexan-1-ol], in data set [2] (pure water), the “log KHxd/w batch partition method mean” value turned out to be 0.79. Also, the “log KHxd/w modified VPR-HS method mean” value in data set [3] was determined as 0.75. Besides, the “log Kaw eq 1” value in data set [4] is “–1.57”. The “log Kaw VPR-HS” value in data set [1] is on record as “–1.56”. Moreover, the “log Kaw VPR-HS or VP/S” value in data set [6] (23 or 24 °C ref 12) is reported as −1.52; in data set [6] (literature value ref 7), −1.30; in data set [6] (literature value ref 8), −1.63; in data set [6] (literature value ref 9), −1.21.
As to `OCCCCC(F)(F)C(F)(F)C(F)(F)C(F)(F)F` [4:4 FTOH, 4-(perfluorobutyl)butan-1-ol], the “log KHxd/w batch partition method mean” value in data set [2] (pure water) amounted to 1.60. Besides, in data set [3], the “log KHxd/w modified VPR-HS method mean” value was determined as 1.43. For the same compound, the “log Kaw eq 1” value in data set [4] is given as “–1.97”. Further, the “log Kaw VPR-HS” value in data set [1] is on record as “–1.28 ^d”.
As to `CC(O)C(F)(F)C(F)(F)C(F)(F)C(F)(F)C(F)(F)F` (stereo not shown) [5:2s FTOH, 1H,1H,1H,2H-perfluoroheptan-2-ol], the “log KHxd/w batch partition method mean” value in data set [2] (pure water) is 2.00. For the same compound, in data set [5], the “log KHxd/w shared-headspace method mean” value is reported as 2.04. Besides, the “log KHxd/w modified VPR-HS method mean” value in data set [3] is 1.55. Further, in data set [4], the “log Kaw eq 1” value is recorded as “–0.15”.
`FC(F)(F)C(F)(F)C(F)(F)C(F)(F)C(F)(F)C(F)(F)CI` [6:1 FTI, 1H,1H-perfluoroheptyl iodide]: the “log KHxd/w shared-headspace method mean” value in data set [5] came out at 5.66. Further, in data set [4], the “log Kaw eq 1” value worked out at 2.28.
On to `FC(F)C(F)(F)C(F)(F)C(F)(F)C(F)(F)C(F)(F)CI` [6:1 FTI-7H, 1H,1H,7H-perfluoroheptyl iodide], for which, in data set [5], the “log KHxd/w shared-headspace method mean” value was found to be 4.62. Further, the “log KHxd/w lower than that of 6:1 FTI by” value in data set [5] (difference to 6:1 FTI) came to 1.0 log unit. The “log Kaw eq 1” value in data set [4] was 0.70. The “log Kaw lower than that of 6:1 FTI by” value in data set [4] (difference to 6:1 FTI) is listed as 1.6 log units.
Consider `C=CC(=O)OCCC(F)(F)C(F)(F)C(F)(F)C(F)(F)C(F)(F)C(F)(F)F` [6:2 FTAC, 1H,1H,2H,2H-perfluorooctyl acrylate], for which, in data set [5], the “log KHxd/w shared-headspace method mean” value was 5.43. Further, the “log Kaw eq 1” value in data set [4] is listed as 1.27.
As to `OCCC(F)(F)C(F)(F)C(F)(F)C(F)(F)C(F)(F)C(F)(F)F` [6:2 FTOH, 1H,1H,2H,2H-perfluorooctan-1-ol], the “log KHxd/w batch partition method mean” value in data set [2] (pure water) is 2.50. For the same compound, the “log KHxd/w shared-headspace method mean” value in data set [5] is on record as 2.51. Moreover, the “log Kaw eq 1” value in data set [4] is on record as “–0.64”. Besides, the “log Kaw VPR-HS or VP/S” value in data set [6] (23 or 24 °C ref 12) was −0.44; in data set [6] (literature value ref 7) it was “–1.47”; in data set [6] (literature value ref 8), −0.56; in data set [6] (literature value ref 9), 0.37.
With `OCC(F)(F)C(F)(F)C(F)(F)C(F)(F)C(F)(F)C(F)(F)C(F)(F)F` [7:1 FTOH, 1H,1H-perfluorooctan-1-ol], the “log KHxd/w shared-headspace method mean” value in data set [5] came out at 2.70. Further, the “log Kaw eq 1” value in data set [4] was “–0.26”.
With `OCCC(F)(F)C(F)(F)C(F)(F)C(F)(F)C(F)(F)C(F)(F)C(F)(F)C(F)(F)F` [8:2 FTOH, 1H,1H,2H,2H-perfluorodecan-1-ol], in data set [5], the “log KHxd/w shared-headspace method mean” value is recorded as 3.75. Besides, the “log Kaw eq 1” value in data set [4] turned out to be 0.11. Further, the “log Kaw VPR-HS or VP/S” value was 0.96 in data set [6] (23 or 24 °C ref 12), “–1.82” in data set [6] (literature value ref 7), 0.58 in data set [6] (literature value ref 8) and 0.31 in data set [6] (literature value ref 9).
Consider `CCNS(=O)(=O)C(F)(F)C(F)(F)C(F)(F)C(F)(F)C(F)(F)C(F)(F)F` [EtFHxSA, N-ethyl perfluorohexane sulfonamide], for which the “log KHxd/w batch partition method mean” value in data set [2] (setting [7]) is on record as 2.95 ^c. In data set [4], the “log Kaw eq 1” value is on record as “–1.58”.
On to `CCN(CCO)S(=O)(=O)C(F)(F)C(F)(F)C(F)(F)C(F)(F)C(F)(F)C(F)(F)F` [EtFHxSE, N-ethyl perfluorohexane sulfonamidoethanol], for which, in data set [2] (pure water), the “log KHxd/w batch partition method mean” value was 2.76. Also, the “log Kaw eq 1” value in data set [4] is listed as “–3.02”.
Turning to `CNS(=O)(=O)C(F)(F)C(F)(F)C(F)(F)C(F)(F)F` [MeFBSA, N-methyl perfluorobutane sulfonamide], the “log KHxd/w batch partition method mean” value in data set [2] (setting [7]) is listed as 0.82 ^c. In data set [4], the “log Kaw eq 1” value is listed as “–2.85”.
Turning to `CN(CCO)S(=O)(=O)C(F)(F)C(F)(F)C(F)(F)C(F)(F)F` [MeFBSE, N-methyl perfluorobutane sulfonamidoethanol], in data set [2] (pure water), the “log KHxd/w batch partition method mean” value was found to be 0.49. Further, the “log Kaw eq 1” value in data set [4] is reported as “–4.35”.
In the case of `CNS(=O)(=O)C(F)(F)C(F)(F)C(F)(F)C(F)(F)C(F)(F)C(F)(F)F` [MeFHxSA, N-methyl perfluorohexane sulfonamide], the “log KHxd/w batch partition method mean” value in data set [2] (setting [7]) is 2.25 ^c. Further, the “log Kaw eq 1” value in data set [4] is “–2.01”.
Take `NS(=O)(=O)C(F)(F)C(F)(F)C(F)(F)C(F)(F)F` [PFBSA, perfluorobutane sulfonamide]: the “log KHxd/w batch partition method mean” value in data set [2] (setting [7]) is given as “–1.15 ^c”. Moreover, the “log KHxd/w with pure water lower than with 1 mM HCl solution by” value in data set [2] is reported as 0.5–0.9 log units. Moreover, the “log Kaw eq 1” value in data set [4] was “–4.89”.
For `NS(=O)(=O)C(F)(F)C(F)(F)C(F)(F)C(F)(F)C(F)(F)C(F)(F)F` [PFHxSA, perfluorohexane sulfonamide], in that order: 0.39 ^c, 0.5–0.9 log units and “–3.94”.
Take `NS(=O)(=O)C(F)(F)C(F)(F)C(F)(F)C(F)(F)C(F)(F)C(F)(F)C(F)(F)C(F)(F)F` [PFOSA, perfluorooctane sulfonamide]: the “log KHxd/w batch partition method mean” value in data set [2] (setting [7]) is 1.80 ^c. Moreover, the “log Kaw eq 1” value in data set [4] was “–3.04”.
